Series [1] has as its system multiple anion (CFTR, calcium-activated chloride channels) and cation (K+, Na+) channels. Kind of series: Short-circuit current in MDCK cells (ion channel off-target effects). The series is classed as cell-based, canine. Conditions: 20 μM inhibitor, forskolin and ATP. The protocol: MDCK cells on black 96-well Costar microplates with clear plastic bottoms were cultured for 24 h at 37° C. and incubated with test compounds (0 to 25 μM) for 24 h. Cell viability was assayed using AlamarBlue (Pierce, Rockford, Ill.) in which the reagent was added to each well, incubated for 30 min, and absorbance measured at 590 nm. For short-circuit current measurement, snapwell inserts containing MDCK cells were mounted on Ussing chambers. Test compounds (20 μM) were incubated with MDCK cells at both apical and basolateral sides for 10 min at 37° C. prior to addition of 20 μM forskolin and then 100 μM ATP. The apical and basolateral chambers contained identical solutions: 120 mM NaCl, 5 mM KCl, 1 mM MgCl2, 1 mM CaCl2, 5 mM HEPES, 25 mM NaHCO3 and 10 mM glucose. Solutions were bubbled with 5% CO2/95% O2 and maintained at 37° C. […]
Compound toxicity was evaluated by compound incubation for 24 h with MDCK cell cultures followed by Alamar blue assay. […] To assess potential ion channel off-target effects, short-circuit current was measured in MDCK cells in response to cAMP (forskolin) and calcium (ATP) agonists (FIG. 5C, right), which depends on the actions of multiple anion (CFTR, calcium-activated chloride channels) and cation (K^+, Na^+) channels.

For a further series, the system named is MDCK cell monolayers. Description: Inhibitor permeability across MDCK cell monolayers (LC/MS). The series is classed as in vitro ADME, canine. To be noted: computed from surface-to-volume considerations. The protocol:
UT-A1 expressing MDCK cells were grown on 12-mm diameter collagen-coated Transwell inserts (0.4 μm pore size; Costar, Costar, N.Y.) to form tight monolayers (resistance>500 Ωcm^2), as described (see, e.g., Levin et al. (2007) FASEB J. 21, 551-563). Urea flux in the basolateral-to-apical direction was measured in response to a 15 mM urea gradient in which PBS containing forskolin (10 μM), with or without UT-A1 inhibitor and 0.7 mM phloretin, was added to both the apical-facing (0.2 mL) and basal-facing (2 mL) surfaces. After 30 min the basal-facing solution was replaced by PBS containing test compound+15 mM urea. Apical fluid samples (5 μL) were collected at specified times for enzymatic assay of urea (QUANTICHROME Urea Assay Kit; BioAssay Systems, Hayward, Calif.). To measure inhibitor permeability across MDCK cell layers, compounds (20 μM) were added on the basal-facing surface and fluid samples (20 μL) from the apical-facing surface were collected at different time points and analyzed by LC/MS.
To further evaluate the potential site of inhibitor action, the kinetics of UT-A1 inhibition was measured by assay of UT-A1 inhibition at different times after compound addition. […] To assess inhibitor membrane permeability transport of UTAinh-E02 and UTAinh-F11 across MDCK monolayers grown on porous filters by LC/MS was measured. Transport of UTAinh-F11 was much faster than that of UTAinh-E02 (FIG. 3C, right lower panel), with computed transepithelial permeability coefficients of […] and 1.1×10^−5 cm/s, respectively. From surface-to-volume considerations, the equilibration times were computed of UTAinh-E02 and UTAinh-F11 to be 250 and 14 s, respectively, in MDCK cells, which are consistent with intracellular sites of action of both inhibitors.

The structures appear in SMILES notation.

As to `COc1ccc(C)cc1S(=O)(=O)Nc1ccc(Cl)c(N2CCCS2(=O)=O)c1` [UTA1inh-F11, N-[4-Chloro-3-(1,1-dioxido-1,2-thiazolidin-2-yl)phenyl]-2-methoxy-5-methylbenzene-sulfonamide], in series [1], the short-circuit current result is given as “Neither inhibitor at 20 μM altered short-circuit current”. In the series with MDCK cell monolayers, the “equilibration time in MDCK cells” value turned out to be 14 s.
Regarding `CC(=O)Nc1ccc(-c2csc(-c3c[nH]c4ccccc34)n2)cc1` [UTA1inh-E02, N-(4-(2-(1H-indol-3-yl)thiazol-4-yl)phenyl)acetamide], in series [1], the short-circuit current entry is “Neither inhibitor at 20 μM altered short-circuit current”. For the same molecule, the “equilibration time in MDCK cells” value with MDCK cell monolayers is listed as 250 s.

The values are drawn from US11123340B2, “Small-molecule UT-A-selective urea transport inhibitors” (The Regents of the University of California, priority 2014, dated 2021).
